In PMC11557217, “Insights into the Functioning of the D-amino Acid Transaminase from Haliscomenobacter Hydrossis via a Structural and Spectral Analysis of its Complex with 3-Aminooxypropionic Acid” (Acta Naturae, 2024):

What was measured:
TA_Halhy [1] = molecular target: T1, TA_Halhy (Haliscomenobacter hydrossis, UniProt F4KWH0); assay: X-ray crystal structure ([…] Å, co-crystallization); UV/Vis spectra of oxime formation; format: binding; details: covalent: forms oxime with the PLP cofactor; crystals at pH 5.5, 12 mM compound, 6 mM PLP; spectra at pH 8.0, 25 °C; carboxyl group in O-pocket; reversible
T1 construct: gene Halhy_2446; PLP holoenzyme; homodimer
T1 sequence (F4KWH0 1-281): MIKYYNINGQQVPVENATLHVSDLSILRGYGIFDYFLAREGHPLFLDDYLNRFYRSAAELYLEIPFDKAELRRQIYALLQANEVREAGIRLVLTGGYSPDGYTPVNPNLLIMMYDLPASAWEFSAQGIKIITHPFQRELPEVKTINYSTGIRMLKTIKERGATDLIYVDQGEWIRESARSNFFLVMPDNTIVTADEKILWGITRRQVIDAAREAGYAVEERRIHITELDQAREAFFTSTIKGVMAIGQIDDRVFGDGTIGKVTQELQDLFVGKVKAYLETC

TA_Halhy [2] = molecular target: T1, TA_Halhy; assay: transamination, lactate dehydrogenase-coupled NADH assay; substrate inhibition curve; format: biochemical; details: 2.5 mM pyruvate, 30 μM PLP, 50 mM potassium phosphate, pH 8.0, 40 °C
TA_Halhy [3] = molecular target: T1, TA_Halhy; assay: UV/Vis spectra and activity restoration of the apoenzyme on adding PLP; format: biochemical; details: 50 mM potassium phosphate, pH 8.0; covalent internal aldimine in the holoenzyme
TA_Halhy [4] = molecular target: T1, TA_Halhy; assay: transamination; substrate inhibition curve; format: biochemical; details: 40 mM D-alanine, 30 μM PLP, 50 mM potassium phosphate, pH 8.0, 40 °C

`NOCCC(=O)O` [3-aminooxypropionic acid, 3-(aminooxy)propanoic acid] was tested, and the “X-ray crystal structure (1.70 Å, co-crystallization); UV/Vis spectra of oxime fo” value (TA_Halhy [1]) was “the structure of the TA_Halhy complex has been solved and refined”.

In the case of `N[C@H](CCC(=O)O)C(=O)O` [D-glutamic acid], the “transamination, lactate dehydrogenase-coupled NADH assay; substrate inhibition c” value (TA_Halhy [2]) is reported as “TA_Halhy is inhibited by D-glutamic acid and α-ketoglutarate at substrate concentrations as low as millimolars”.

For `Cc1ncc(COP(=O)(O)O)c(C=O)c1O` [pyridoxal 5'-phosphate], the “UV/Vis spectra and activity restoration of the apoenzyme on adding PLP” value (TA_Halhy [3]) was “Holoenzyme was formed, and TA_Halhy activity was fully restored, after PLP was added”.

With `O=C(O)CCC(=O)C(=O)O` [α-ketoglutarate] the “transamination; substrate inhibition curve” value (TA_Halhy [4]) was “TA_Halhy is inhibited by D-glutamic acid and α-ketoglutarate at substrate concentrations as low as millimolars”.
